Experimental data taken from patent US4243681A, “Alkylthiophenoxypropanolamines and pharmaceutical compositions and uses thereof” (priority 1979, dated 1981).
Counter-ions that a name gives are not always drawn.

Columns and labels:
perfused dog hind limb = assay: Peripheral vasodilator activity, perfused dog hind limb (anesthetized dog); format: in vivo
Procedure: Test Method. Mongrol dogs of either sex weighing between 11 and 16 kg., each, were anesthetized with pentobarbital (30 mg./kg.) administered intravenously. The left brachial vein was cannulated and pentobarbital infused continuously throughout the experiment at a rate of 5 mg./kg./hr. A tracheotomy was performed and dogs ventilated mechanically with room air at a rate of 18 strokes/min. and a volume equivalent to 20 ml./kg. The vagi were sectioned bilaterally in the mid-cervical region of the neck. The right brachial vein and artery were cannulated to inject drugs and to monitor blood pressure via a Statham pressure transducer, respectively. All measurements were recorded on a Beckman-Offner dynograph. The abdominal aorta was exposed through midline incision and a loose ligature placed around the aorta distal to the left renal artery. The right (donor) and left (recipient) femoral arteries were exposed for cannulation and subsequent hind-limb perfursion. Following intravenous administration of heparin (5 mg/kg.) and gallamine triethiodide (2 mg./kg.), the right femoral artery was cannulated and the tip of the catheter advanced into the abdominal aorta to the level of the renal arteries. The left femoral artery was cannulated and the hind-limb perfused using a Harvard Perfusion pump. The ligature previously placed around the aorta was subsequently tied to minimize collateral circulation. […] Perfusion pressure, measured at a point distal to the perfusion pump was set equal to 150 mm Hg. by adjusting pump speed. Blood flow to the limb was determined volumetrically at the conclusion of the experiment. The test agent was administered by infusion at a rate of from 0.1-1.0 mg./min. for a six-minute period and maximum reduction in pressure determined. One to three animals were employed per test agent. […] This protocol precludes effects resulting from animal variation thus permitting a direct side-by-side comparison of vasodilating activity.

[1] = tested on: human platelet-rich plasma; assay: Inhibition of platelet aggregation in vitro (ADP or collagen induced; antithrombogenic activity); format: cell-based; settings: for ED50 ADP (inhibition of platelet aggregation): aggregation induced by 1 mcg. ADP; for ED50 Coll (inhibition of platelet aggregation): minimal amount of collagen producing maximal aggregation
Procedure: Test Method. A method similar to that described in Born, Nature 194, 927 (1962) and O'Brien, J. Clinical Pathology 15, 446 (1962). This test comprises a nephelometric method in which the change in turbidity of a specimen of human platelet-rich plasma is measured on causation of platelet aggregation by addition of adenosine diphosphate (ADP) or collagen as the thrombogenic inducing agent. An increase in transmittance light occurs when the thrombogenic agent is added to the specimen of platelet-rich plasm due to clumping of platelets. Efficacy of the test compound is determined by ability to prevent the clumping and concommitant increase in transmittance. Various concentrations of the test agent are tested and that concentration causing a 50% reduction in the thrombogenic response is determined from a concentration-response curve.

adrenergic beta-receptor = target: T1, adrenergic beta-receptor (Cavia porcellus, UniProt Q8K4Z4); assay: Beta-adrenergic blocking activity in the isolated guinea pig trachea (isoproterenol); format: cell-based; settings: for Beta-Adrenergic Blocking Potency: potency relative to propanol (equals one), isoproterenol 0.1 mcg./ml.
T1 construct: Tracheas excised from adult guinea pigs; from tissue; host or cells: guinea pig trachea (spirally cut segments)
T1 sequence (Q8K4Z4 whole entry): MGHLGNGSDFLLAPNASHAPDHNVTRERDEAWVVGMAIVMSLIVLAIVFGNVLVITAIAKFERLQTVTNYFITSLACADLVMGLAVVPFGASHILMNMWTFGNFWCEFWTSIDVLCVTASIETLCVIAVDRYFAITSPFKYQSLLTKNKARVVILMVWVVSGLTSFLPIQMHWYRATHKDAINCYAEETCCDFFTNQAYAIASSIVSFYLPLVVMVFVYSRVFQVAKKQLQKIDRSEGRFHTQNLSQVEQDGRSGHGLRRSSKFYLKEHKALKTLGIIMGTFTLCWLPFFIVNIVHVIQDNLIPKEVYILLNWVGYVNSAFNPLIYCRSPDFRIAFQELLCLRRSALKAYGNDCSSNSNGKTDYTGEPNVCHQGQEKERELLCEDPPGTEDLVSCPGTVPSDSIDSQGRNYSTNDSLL
Procedure: Test Method. […] The lower end of a tracheal segment is fixed to a stationary glass rod and the upper end is threaded to an isometric tension transducer. Changes in the spontaneous tonus of the tracheal smooth muscle are monitored via the transducer and recorded continuously on an electronic recorder. Adrenergic beta-receptor blocking activity is determined by the ability of a test agent to inhibit the response of the isolated tissue to the adrenergic beta-stimulant "isoproterenol" at a concentration of 0.1 mcg./ml. bath fluid. The tissues are exposed to the test agent solution for a 15-min. interval prior to the addition of isoproterenol to the bath fluid. Beta-receptor blocking potency of a test drug is ascertained from concentration-response relationships wherein the response is expressed as a percent inhibition of isoproterenol-induced tissue response. […] Each drug solution is added to the tissue bathing medium at a constant volume of 0.2 ml./ml. of bath fluid and only one test drug concentration is employed for an individual tissue segment. Potency of the test agent relative to that of the beta-adrenergic blocking agent "propanolol" as a reference standard is assessed by comparing the IC50 values.

rabbit thoracic aorta = assay: Isolated rabbit thoracic aorta, antispasmodic activity vs. potassium chloride; format: cell-based, rabbit (New Zealand White); settings: for Antispasmodic Potency: potency relative to papaverine (equals one), from pA2 vs. potassium chloride
Procedure: (§1) Test Method. Antispasmodic activity was assessed in vitro by determining the effect of the test substance on induced contraction of arterial smooth muscle as follows. Adult, male, New Zealand White rabbits (body weight 2.5-4 kg.) were used. Each rabbit was killed by i.v. air injection. The thorax was opened and the descending thoracic aorta removed and placed in Kreb's-bicarbonate solution. Extraneous tissue was removed and the aorta was cut spirally along its entire length. Four spiral segments, each approximately 2 cm. in length (unstretched), were obtained from each thoracic aorta. […] The bath medium surrounding the aortic spiral (Kreb's-bicarbonate solution) was maintained at 37.5°C. and constantly aerated with 95% O2 :5% CO2. Activity of the aortic smooth muscle was recorded on an electronic polygraph via its connection to the tension transducer. After an equilibration period of 60 min., a cumulative dose-response curve was obtained to an agonist (e.g. potassium chloride or norepinephrine) and the tissue then washed. Seventy-five min. later, a second cumulative dose-response curve to the agonist was obtained and the tissue washed again. Sixty min. later, a test drug solution was added to the tissue bath fluid and, after 15 min., drug exposure and, without washing, a third and final agonist-response curve was obtained. All additions to the bath fluid were 0.1 ml. volumes of aqueous solutions.

alpha-adrenergic = assay: Isolated rabbit thoracic aorta, antispasmodic (anti-alpha-adrenergic) activity vs. norepinephrine; format: cell-based, rabbit (New Zealand White); settings: norepinephrine as agonist
Procedure: as §1, with “solutions. […] Selective activity against norepinephrine-induced spasms is indicative of alpha-adrenergic blocking (i.e. antispasmodic) activity. […] Phentolamine is an alpha-adrenergic blocking agent and a standard reference in the art. […] This experiment illustrates that the instant compounds are non-anti-alpha-adrenergic antispasmodic agents in that they have a substantial direct smooth muscle relaxant effect (as shown in Example 34) relatively uncomplicated by any significant selective alpha-adrenergic blocking effect.” for “solutions.”

[2] = potassium chloride-induced spasms

Structure (SMILES)	Pressure Decrease (perfused dog hind limb; infusion rate 0.3 mg./min.)	Pressure Decrease (perfused dog hind limb; infusion rate 1.0 mg./min.)	ED50 ADP (inhibition of platelet aggregation) [1]	ED50 Coll (inhibition of platelet aggregation) [1]	Beta-Adrenergic Blocking Potency (adrenergic beta-receptor)	Antispasmodic Potency (rabbit thoracic aorta)	antispasmodic potency relative to prior art compounds A and B (rabbit thoracic aorta; [2])	anti-alpha-adrenergic activity relative to phentolamine (alpha-adrenergic)	pressure reduction (findings, range over compounds) (perfused dog hind limb; infusion dose 1.0 mg./min.)	Pressure Decrease (perfused dog hind limb; infusion rate 0.3 mg./min., side-by-side comparison in same animals)	Pressure Decrease (perfused dog hind limb; infusion rate 1.0 mg./min., side-by-side comparison in same animals)	beta-adrenergic blocking activity (in words) (adrenergic beta-receptor)	antispasmodic activity (in words) (rabbit thoracic aorta; [2])
CCCCCCCCNCC(O)COc1ccc(SC)cc1 (stereo not drawn) [Example 1, 1-[4-(Methylthio)phenoxy]-3-(octylamino)-2-propanol]	-22 Millimeters of mercury	-59 Millimeters of mercury	69 Microgram/0.5 ml. plateletrich human plasma	42 Microgram/0.5 ml. plateletrich human plasma	< 0.001	–	–	–	–	–	–	–	–
CCCCCCCCNCC(O)COc1cccc(SC(C)C)c1.Cl (stereo not drawn) [Example 3, 1-[3-[(1-Methylethyl)thio]phenoxy]-3-(octylamino)-2-propanol Hydrochloride]	-20 Millimeters of mercury	-87 Millimeters of mercury	53 Microgram/0.5 ml. plateletrich human plasma	24 Microgram/0.5 ml. plateletrich human plasma	< 0.001	0.7	–	–	–	–	–	–	–
CCCCCCCCCCCCNCC(O)COc1ccc(SC(C)C)cc1.Cl (stereo not drawn) [Example 4, 1-[4-[(1-Methylethyl)thio]phenoxy]-3-(dodecylamino)-2-Propanol Hydrochloride]	–	–	–	–	< 0.001	0.08	twice as potent	–	–	–	–	–	–
CC(C)Sc1ccc(OCC(O)CNCCC2CCCCC2)cc1 (stereo not drawn) [Example 5, 1-[(2-cyclohexylethyl)amino]-3-[4-[(1-methylethyl)thio]phenoxy]-2-propanolhydrochloride]	-63 Millimeters of mercury	-87 Millimeters of mercury	56 Microgram/0.5 ml. plateletrich human plasma	47 Microgram/0.5 ml. plateletrich human plasma	< 0.0006	2.4	–	–	–	–	–	–	–
CC(C)Sc1ccc(OCC(O)CNCCCCC2CCCCC2)cc1 (stereo not drawn) [Example 6, 1-[(4-cyclohexylbutyl)amino]-3-[4-[(1-methylethyl)thio]phenoxy]-2-propanolhydrochloride]	-47 Millimeters of mercury	-74 Millimeters of mercury	53 Microgram/0.5 ml. plateletrich human plasma	29 Microgram/0.5 ml. plateletrich human plasma	< 0.002	0.02	about 1/2	–	–	–	–	–	–
CCCCCCCCNCC(O)COc1ccc(SC)cc1C (stereo not drawn) [Example 7, 1-[2-methyl-4-(methylthio)phenoxy]-3-(octylamino)-2-propanol]	-56 Millimeters of mercury	-80 Millimeters of mercury	82 Microgram/0.5 ml. plateletrich human plasma	39 Microgram/0.5 ml. plateletrich human plasma	< 0.0006	0.8	–	–	–	–	–	–	–
CCCCCCCCNCC(O)COc1ccccc1SC.Cl (stereo not drawn) [Example 8, 1-[2-(Methylthio)phenoxy]-3-(octylamino)-2-propanol Hydrochloride]	-15 Millimeters of mercury	-64 Millimeters of mercury	65 Microgram/0.5 ml. plateletrich human plasma	32 Microgram/0.5 ml. plateletrich human plasma	0.004	2.6	–	1-2%	–	–	–	–	–
COc1ccc(Cc2nccc3cc(OC)c(OC)cc23)cc1OC [Papaverine, reference compound]	-31 Millimeters of mercury	–	–	–	–	–	–	–	–	–	–	–	–
CSc1ccccc1OCC(O)CNC(C)C (stereo not drawn) [Test agent A, 1-(isopropylamino)-3-[2-(methylthio)phenoxy]-2-propanol, reference compound]	–	–	137 Microgram/0.5 ml. plateletrich human plasma	33 Microgram/0.5 ml. plateletrich human plasma	1.0	0.04	–	1-2%	27-29 mm Hg	-20 Millimeters of mercury	-27 Millimeters of mercury	substantial activity	relatively weak activity
